From US7626005B2, “Inhibitors of aminoglycoside 6′-N-acetyltransferases, compositions and uses thereof” (priority 2005, dated 2009)

Tests used:
AAC(6′)-Ii [1] = molecular target: T1, AAC(6′)-Ii (Enterococcus faecium, UniProt Q47764); assay: AAC6′-Ii inhibition assay (DTDP-coupled, varying AcCoA); format: biochemical; set-up: made in house; host or cells: Escherichia coli BL21; settings: for type of inhibition (in words): versus acetylCoA; for Vm: maximal velocity from the fit of the inhibition assay; for enhanced inhibition of AAC(6′)-Ii as compared to lysine-CoA conjugates (3a and 3b): relative to 3a and 3b
Procedure: AAC(6′)-Ii was obtained using a previously described protocol (Wright and Ladak, 1997). The Escherichia coli strain BL21 was transformed with a pET22b expression plasmid containing the AAC(6′)-Ii gene. The bacteria were grown in Luria-Bertani (LB) media at 37° C. containing ampicillin (100 μg/mL). Expression of the protein was induced using isopropyl-β-D-thiogalactoside (IPTG). After harvesting the cells by centrifugation and washing them with a 0.85% NaCl solution, the cells were lysed by sonication. AAC(6′)-Ii was purified in a two-step process: firstly, the lysate was ran through a Q-Sepharose ion exchange column (GE Healthsciences), and secondly the AAC(6′)-Ii containing fractions were further purified using a Gentamicin agarose affinity column (BioRad).
Enzyme activity was monitored using a procedure described elsewhere (Williams and Northrop, 1978). Thus, reaction mixtures in HEPES (1 mM, pH=7.5) and containing 4,4′-dithiodipyridine (DTDP, 2 mM), aminoglycoside (200 μM), and AAC(6′)-Ii (25 μg/mL) were prepared with varying concentrations of AcCoA. Reaction volumes were typically 400 μl. The assay mixtures were preincubated for 1 min at 37° C. The initial rates V were fit to Equation S1, where [S] is the concentration of AcCoA, Km is the Michaelis-Menten constant, and Vm is the maximal velocity: [S]/V=[S]/Vm+Km/Vm (S1)
The initial reaction velocity (steady-state) in the presence of inhibitors was measured as described above. The initial rates obtained at various concentrations of inhibitor were fit to Equation S2 for competitive inhibition, to Equation S3 for […] inhibition, or to Equation S4 for uncompetitive inhibition, where [I] is the concentration of inhibitor and Ki is the inhibition constant: [S]/V=[S]/Vm+(1+[I]/Ki)Km/Vm (S2) [S]/V=(1+[I]/Ki)[S]/Vm+Km/Vm (S3) [S]/V=(1+[I]/Ki)[S]/Vm+(1+[I]/Ki)Km/Vm (S4)

AAC(6′)-Iy = molecular target: T2, AAC(6′)-Iy (Salmonella enteritidis, UniProt Q9R381); assay: Inhibition assay of AAC(6′)-Iy; format: biochemical, Salmonella enterica; settings: for Ki: Table 2
T2 sequence (Q9R381 1-145): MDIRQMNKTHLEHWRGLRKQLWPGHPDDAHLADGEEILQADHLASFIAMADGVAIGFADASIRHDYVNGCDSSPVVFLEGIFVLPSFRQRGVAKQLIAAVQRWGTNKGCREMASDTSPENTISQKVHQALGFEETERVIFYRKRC

AAC(6′)-Ii [2] = molecular target: T1, AAC(6′)-Ii; settings: read-out: Michaelis-Menten constant (Km); acetyl CoA as substrate of AAC(6′)-Ii; cited from earlier work
[3] = Ki (μM), Table 1, inhibition of AAC(6′)-Ii, varying AcCoA
[4] = inhibition constant (Ki), running text b80

T1 sequence (Q47764 1-182): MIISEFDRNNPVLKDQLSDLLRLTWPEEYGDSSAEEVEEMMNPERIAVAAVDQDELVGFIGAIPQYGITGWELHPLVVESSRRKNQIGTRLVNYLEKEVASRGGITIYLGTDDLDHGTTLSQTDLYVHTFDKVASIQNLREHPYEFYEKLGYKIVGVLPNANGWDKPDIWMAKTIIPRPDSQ

Compound | inhibition of AAC(6′)-Ii (in words) (AAC(6′)-Ii [1]) | Ki (AAC(6′)-Ii [1]; [3]) | Ki (AAC(6′)-Ii [1]; [4]) | type of inhibition (in words) (AAC(6′)-Ii [1]) | Ki values (in words) (AAC(6′)-Iy) | Ki (AAC(6′)-Iy) | Ki values (in words) (AAC(6′)-Ii [1]) | Ki (AAC(6′)-Ii [1]; AAC(6′)-Ii [Ki, (μM)], Table 2) | Vm (AAC(6′)-Ii [1]; Table 1) | enhanced inhibition of AAC(6′)-Ii as compared to lysine-CoA conjugates (3a and 3b) (AAC(6′)-Ii [1]) | type of inhibition (in words) (AAC(6′)-Ii [1]; listed as 10) | Km (AAC(6′)-Ii [2])
COC(=O)C(CCCCNC(=O)CSCCNC(=O)CCNC(=O)C(O)C(C)(C)COP(=O)(O)OP(=O)(O)OCC1OC(n2cnc3c(N)ncnc32)C(O)C1OP(=O)(O)O)NC(C)=O (centres unmarked) [Compound 3a] | moderate inhibition | ≥ 130 µM | 130 µM | moderate competitive inhibition | – | – | – | – | – | – | – | –
COC(=O)C(CCCCNC(=O)CCSCCNC(=O)CCNC(=O)C(O)C(C)(C)COP(=O)(O)OP(=O)(O)OCC1OC(n2cnc3c(N)ncnc32)C(O)C1OP(=O)(O)O)NC(C)=O (centres unmarked) [Compound 3b] | moderate inhibition | ≥ 30 µM | 30 µM | moderate competitive inhibition | – | – | – | – | – | – | – | –
CC(C)(COP(=O)(O)OP(=O)(O)OCC1OC(n2cnc3c(N)ncnc32)C(O)C1OP(=O)(O)O)C(O)C(=O)NCCC(=O)NCCSCC(=O)NCC1OC(OC2C(N)CC(N)C(O)C2O)C(N)C(O)C1O (centres unmarked) [Compound 10a] | – | 0.076 ± 0.025 µM | – | potent competitive inhibitors | near submicromolar | 2.76 ± 0.4 µM | submicromolar range | 0.076 ± 0.025 µM | 0.15 ± 0.01 µM/s | 500 fold | competitive inhibition versus acetylCoA | –
CC(C)(COP(=O)(O)OP(=O)(O)OCC1OC(n2cnc3c(N)ncnc32)C(O)C1OP(=O)(O)O)C(O)C(=O)NCCC(=O)NCCSCCC(=O)NCC1OC(OC2C(N)CC(N)C(O)C2O)C(N)C(O)C1O (centres unmarked) [Compound 10b] | highest inhibition among all the inhibitors | – | – | potent competitive inhibitors | near submicromolar | 1.89 ± 0.3 µM | submicromolar range | 0.043 ± 0.023 µM | – | – | – | –
CC(C)(COP(=O)(O)OP(=O)(O)OCC1OC(n2cnc3c(N)ncnc32)C(O)C1OP(=O)(O)O)C(O)C(=O)NCCC(=O)NCCSCCCC(=O)NCC1OC(OC2C(N)CC(N)C(O)C2O)C(N)C(O)C1O (centres unmarked) [Compound 10c] | – | – | – | potent competitive inhibitors | near submicromolar | 2.1 ± 0.3 µM | submicromolar range | 0.161 ± 0.098 µM | – | – | – | –
CC(C)(COP(=O)(O)OP(=O)(O)OCC1OC(n2cnc3c(N)ncnc32)C(O)C1OP(=O)(O)O)C(O)C(=O)NCCC(=O)NCCSCCCCC(=O)NCC1OC(OC2C(N)CC(N)C(O)C2O)C(N)C(O)C1O (centres unmarked) [Compound 10d] | – | – | – | – | near submicromolar | 1.9 ± 0.3 µM | – | 7.99 ± 2.66 µM | – | – | – | –
CC(C)(COP(=O)(O)OP(=O)(O)OCC1OC(n2cnc3c(N)ncnc32)C(O)C1OP(=O)(O)O)C(O)C(=O)NCCC(=O)NCCSCC(=O)NCC1OC(OC2C(N)CC(N)C(O)C2OC2OC(CO)C(O)C2O)C(N)C(O)C1O (centres unmarked) [Compound 12] | – | 0.119 ± 0.014 µM | – | competitive inhibition versus acetylCoA | – | 1.1 ± 0.1 µM | – | 0.119 ± 0.014 µM | 0.14 ± 0.04 µM/s | 500 fold | – | –
CC(=O)SCCNC(=O)CCNC(=O)[C@H](O)C(C)(C)COP(=O)(O)OP(=O)(O)OC[C@H]1O[C@@H](n2cnc3c(N)ncnc32)[C@H](O)[C@@H]1OP(=O)(O)O [acetyl CoA, Acetyl Coenzyme A] | – | – | – | – | – | – | – | – | – | – | – | 23.5 µM
